Assay results reported in patent publication US9980943B2, “Methods of treating muscular dystrophy” (BOARD OF REGENTS OF THE NEVADA SYSTEM OF HIGHER EDUCATION, …, priority 2013, dated 2018).

Assays:
Type in all cases: cell-based, mouse
[1] = test system: β-galactosidase in CMV-LacZ C2C12 myoblasts; assay: CMV-LacZ secondary screen in C2C12 myoblasts (β-Gal stabilizing assay); settings: CMV-LacZ C2C12 myoblasts
Text: In order to determine compounds that acted to stabilize β-gal in myogenic cells, a CMV-LacZ C2C12 cell line was used in a secondary screen. The EGFP gene from the pEGFP (Clontech) vector was replaced by LACZ PCR product with digests of the vector/PCR product performed using EcoRI (NEB) and NotI (NEB) and ligated using T4 DNA Ligase (NEB) following standard procedures to produce the CMV-LACZ vector. The LACZ gene was generated by PCR from the pBK-RSV (Stratagene) vector using primers LACZ EcoRI F- and LACZ NotI R-. The CMV-LACZ vector was then digested with AfIII (NEB) to linearize the construct, which was then transfected in C2C12 myoblasts using Lipofectamine 2000 (Invitrogen) following the manufacturer's instructions. […] Clonal lines were selected and screened for βgal levels using the myoblast FDG assay.
The assays were used the original 96-well format and new dose-response curves for myoblasts (N=3-6 replicates for each data point), myotubes (N=3-6 replicates for data point), and CMV-LacZ secondary assay (N=2 replicates for each data point) using concentrations of 0.5 μM, 1 μM, 5 μM, 10 μM, 20 μM, and 40 μM (Tables 9-16).

[2] = test system: α7 integrin (LacZ reporter in α7βgal+/− myoblasts); assay: Myoblast α7+/LacZ integrin FDG assay (Burkin assay in myoblasts, 96-well); settings: α7+/LacZ myoblasts, 96-well
[3] = test system: α7 integrin (LacZ reporter in α7+/LacZ myotubes); assay: Myotube α7 integrin FDG assay (Burkin assay in myotubes, 96-well); settings: myotubes
[4] = test system: β-galactosidase in CMV-LacZ C2C12 myotubes; assay: CMV-LacZ secondary screen in C2C12 myotubes (β-Gal stabilizing assay); settings: C2C12 CMV-LacZ myotubes, fold relative to DMSO
Method in brief: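 β-Gal level was the read-out, measured in a clonal C2C12 line expressing LacZ from a CMV promoter. Dose-response curves used six concentrations, 0.5 μM up to 40 μM, with duplicate points.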

## CCOC(=O)c1cc(-c2cccs2)nc2c1c(C)nn2-c1ccccn1 [MLS001006516-01]
[1]; 0.5 uM
  CMV-LACZ in Myoblasts (β-galactosidase activity relative to DMSO): 1.0038
[1]; 1 uM
  CMV-LACZ in Myoblasts (β-galactosidase activity relative to DMSO): 0.8858
[1]; 5 uM
  CMV-LACZ in Myoblasts (β-galactosidase activity relative to DMSO): 0.9829
[1]; 10 uM
  CMV-LACZ in Myoblasts (β-galactosidase activity relative to DMSO): 0.9076
[1]; 20 uM
  CMV-LACZ in Myoblasts (β-galactosidase activity relative to DMSO): 0.4956
[1]; 40 uM
  CMV-LACZ in Myoblasts (β-galactosidase activity relative to DMSO): 0.6589
[2]; 0.5 uM
  Burkin Assay in Myoblasts, signal relative to DMSO: 1.097
[2]; 1 uM
  Burkin Assay in Myoblasts, signal relative to DMSO: 1.134
[2]; 5 uM
  Burkin Assay in Myoblasts, signal relative to DMSO: 0.8796
[2]; 10 uM
  Burkin Assay in Myoblasts, signal relative to DMSO: 0.7932
[2]; 20 uM
  Burkin Assay in Myoblasts, signal relative to DMSO: 0.6928
[2]; 40 uM
  Burkin Assay in Myoblasts, signal relative to DMSO: 0.4802
[3]; 0.5 uM
  Burkin Assay in Myotubes, α7 integrin LacZ reporter signal relative to DMSO: 0.9261
[3]; 1 uM
  Burkin Assay in Myotubes, α7 integrin LacZ reporter signal relative to DMSO: 0.8714
[3]; 5 uM
  Burkin Assay in Myotubes, α7 integrin LacZ reporter signal relative to DMSO: 0.9257
[3]; 10 uM
  Burkin Assay in Myotubes, α7 integrin LacZ reporter signal relative to DMSO: 0.9085
[3]; 20 uM
  Burkin Assay in Myotubes, α7 integrin LacZ reporter signal relative to DMSO: 0.7127
[3]; 40 uM
  Burkin Assay in Myotubes, α7 integrin LacZ reporter signal relative to DMSO: 0.7127
[4]; 0.5 uM
  CMV-LACZ in Myotubes, signal relative to DMSO: 0.9581
[4]; 1 uM
  CMV-LACZ in Myotubes, signal relative to DMSO: 0.9257
[4]; 5 uM
  CMV-LACZ in Myotubes, signal relative to DMSO: 0.9283
[4]; 10 uM
  CMV-LACZ in Myotubes, signal relative to DMSO: 0.8542
[4]; 20 uM
  CMV-LACZ in Myotubes, signal relative to DMSO: 0.9032
[4]; 40 uM
  CMV-LACZ in Myotubes, signal relative to DMSO: 0.9484

## CC(=O)Nc1ccc(-n2c(C)nc(=O)c(-c3ccccc3)c2C)cc1 [MLS000078709-01]
[1]; 0.5 uM
  CMV-LACZ in Myoblasts (β-galactosidase activity relative to DMSO): 0.8167
[1]; 1 uM
  CMV-LACZ in Myoblasts (β-galactosidase activity relative to DMSO): 0.7008
[1]; 5 uM
  CMV-LACZ in Myoblasts (β-galactosidase activity relative to DMSO): 0.9270
[1]; 10 uM
  CMV-LACZ in Myoblasts (β-galactosidase activity relative to DMSO): 1.0163
[1]; 20 uM
  CMV-LACZ in Myoblasts (β-galactosidase activity relative to DMSO): 0.6919
[1]; 40 uM
  CMV-LACZ in Myoblasts (β-galactosidase activity relative to DMSO): 0.4830
[2]; 0.5 uM
  Burkin Assay in Myoblasts, signal relative to DMSO: 1.063
[2]; 1 uM
  Burkin Assay in Myoblasts, signal relative to DMSO: 0.996
[2]; 5 uM
  Burkin Assay in Myoblasts, signal relative to DMSO: 0.8157
[2]; 10 uM
  Burkin Assay in Myoblasts, signal relative to DMSO: 0.8052
[2]; 20 uM
  Burkin Assay in Myoblasts, signal relative to DMSO: 0.5171
[2]; 40 uM
  Burkin Assay in Myoblasts, signal relative to DMSO: 0.2616
[3]; 0.5 uM
  Burkin Assay in Myotubes, α7 integrin LacZ reporter signal relative to DMSO: 0.8374
[3]; 1 uM
  Burkin Assay in Myotubes, α7 integrin LacZ reporter signal relative to DMSO: 0.8236
[3]; 5 uM
  Burkin Assay in Myotubes, α7 integrin LacZ reporter signal relative to DMSO: 0.9535
[3]; 10 uM
  Burkin Assay in Myotubes, α7 integrin LacZ reporter signal relative to DMSO: 0.9899
[3]; 20 uM
  Burkin Assay in Myotubes, α7 integrin LacZ reporter signal relative to DMSO: 0.6311
[3]; 40 uM
  Burkin Assay in Myotubes, α7 integrin LacZ reporter signal relative to DMSO: 0.4894
[4]; 0.5 uM
  CMV-LACZ in Myotubes, signal relative to DMSO: 1.0133
[4]; 1 uM
  CMV-LACZ in Myotubes, signal relative to DMSO: 0.9257
[4]; 5 uM
  CMV-LACZ in Myotubes, signal relative to DMSO: 0.9348
[4]; 10 uM
  CMV-LACZ in Myotubes, signal relative to DMSO: 0.8743
[4]; 20 uM
  CMV-LACZ in Myotubes, signal relative to DMSO: 1.0853
[4]; 40 uM
  CMV-LACZ in Myotubes, signal relative to DMSO: 1.7737

## CCCCN1CC(=O)N2Cc3[nH]c4ccccc4c3C[C@H]2C1=O [MLS001165424-01]
[1]; 0.5 uM
  CMV-LACZ in Myoblasts (β-galactosidase activity relative to DMSO): 1.1754
[1]; 1 uM
  CMV-LACZ in Myoblasts (β-galactosidase activity relative to DMSO): 0.9796
[1]; 5 uM
  CMV-LACZ in Myoblasts (β-galactosidase activity relative to DMSO): 1.0607
[1]; 10 uM
  CMV-LACZ in Myoblasts (β-galactosidase activity relative to DMSO): 1.0078
[1]; 20 uM
  CMV-LACZ in Myoblasts (β-galactosidase activity relative to DMSO): 1.2730
[1]; 40 uM
  CMV-LACZ in Myoblasts (β-galactosidase activity relative to DMSO): 1.2074
[2]; 0.5 uM
  Burkin Assay in Myoblasts, signal relative to DMSO: 1.152
[2]; 1 uM
  Burkin Assay in Myoblasts, signal relative to DMSO: 1.2222
[2]; 5 uM
  Burkin Assay in Myoblasts, signal relative to DMSO: 0.9966
[2]; 10 uM
  Burkin Assay in Myoblasts, signal relative to DMSO: 0.9548
[2]; 20 uM
  Burkin Assay in Myoblasts, signal relative to DMSO: 1.176
[2]; 40 uM
  Burkin Assay in Myoblasts, signal relative to DMSO: 1.23
[3]; 0.5 uM
  Burkin Assay in Myotubes, α7 integrin LacZ reporter signal relative to DMSO: 0.8771
[3]; 1 uM
  Burkin Assay in Myotubes, α7 integrin LacZ reporter signal relative to DMSO: 0.8568
[3]; 5 uM
  Burkin Assay in Myotubes, α7 integrin LacZ reporter signal relative to DMSO: 0.8938
[3]; 10 uM
  Burkin Assay in Myotubes, α7 integrin LacZ reporter signal relative to DMSO: 0.8315
[3]; 20 uM
  Burkin Assay in Myotubes, α7 integrin LacZ reporter signal relative to DMSO: 0.7791
[3]; 40 uM
  Burkin Assay in Myotubes, α7 integrin LacZ reporter signal relative to DMSO: 0.7641
[4]; 0.5 uM
  CMV-LACZ in Myotubes, signal relative to DMSO: 0.9152
[4]; 1 uM
  CMV-LACZ in Myotubes, signal relative to DMSO: 1.1248
[4]; 5 uM
  CMV-LACZ in Myotubes, signal relative to DMSO: 1.0571
[4]; 10 uM
  CMV-LACZ in Myotubes, signal relative to DMSO: 1.1758
[4]; 20 uM
  CMV-LACZ in Myotubes, signal relative to DMSO: 1.0316
[4]; 40 uM
  CMV-LACZ in Myotubes, signal relative to DMSO: 0.8558
